Assay results as given in US20120083522A1, “MODULATION OF INFLAMMATORY RESPONSES BY FACTOR XI” (Isis Pharmaceuitcals, inc., priority 2009, published 2012).
In the oligonucleotide strings, read from the 5' end, every base follows the letter of its sugar. An asterisk marks phosphorothioate; unmarked linkages are phosphodiester. Other units and linkages are bracketed, terminal groups are in braces. A string of capitals states the bases alone. e = 2'-O-(2-methoxyethyl) (MOE); [5mC] = 5-methylcytosine; d = 2'-deoxy (DNA)

Legend:
[1] = Cynomolgus monkeys: body and organ weights (Example 29); assay type: in vivo
Summary of the method: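 Monkeys (2 male, 3 female per group) dosed s.c. with antisense oligonucleotide, escalating 5→10→25 mg/kg two to three times weekly over 12 weeks (one chronic arm capped at 10 mg/kg); PBS controls. Body weights taken weekly; liver, kidney and spleen weighed after euthanasia on day 85.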

[2] = test system: DSS-induced colitis model; assay: Colitis Study A: DSS-induced colitis, body weight and colon length (Example 12); assay type: in vivo, Swiss Webb mice; conditions: for colon length (in words): FIG. 7C
Protocol: The effect of antisense oligonucleotide inhibition of Factor XI and its role in ameliorating colitis was evaluated in a dextran sulfate sodium (DSS)-induced colitis model. Administration of DSS to animals is a well known method to induce […] and has been previously described by Okayasu et al. (Gastroenterology, 1990, 98:694-702), Cooper et al. (Lab Invest, 1993, 69:238-249) and Dieleman et al. (Clin Exp Immunol, 1998, 114:385-391).
In groups of 8 Swiss Webb mice, 20 mg/kg of ISIS 404071 or ISIS 403102 were injected subcutaneously twice a week for 3 weeks. Two control groups of 8 mice each were injected with PBS twice a week for 3 weeks. After the oligonucleotide treatments, 4% DSS in water was administered ad libitum for 6 days to the experimental groups and one PBS control group.
Mice in all groups were weighed at day 0. Mice were sacrificed at the end of the study on day 7 after DSS was administered and their body weights and colon lengths were measured. Results are presented in Table 24 (expressed as a percentage of the PBS control) and FIG. 7.
Colon length was assessed in the DSS-induced colitis mice.

murine Factor XI mRNA = assay: Colitis Study B: Factor XI mRNA in the liver; assay type: in vivo, Swiss Webb mice; conditions: DSS-induced colitis, day 7, 20 mg/kg s.c. twice a week for 3 weeks, percent change compared to the PBS control
Protocol: (§1) In a first group of 8 Swiss Webb mice, 20 mg/kg of ISIS 404071 was injected subcutaneously twice a week for 3 weeks. In a second group of 8 Swiss Webb mice, 20 mg/kg of ISIS 404057 was subcutaneously injected twice a week for 3 weeks. In a third control group of 8 Swiss Webb mice, 20 mg/kg of ISISI 421208 was injected subcutaneously twice a week for 3 weeks. Two control groups of 8 mice each were injected with PBS twice a week for 3 weeks. After the oligonucleotide treatment, 4% DSS in water was administered ad libitum for 6 days to all the experimental groups and one PBS control group.
(§2) Mice in all groups were weighed at day 0 and daily after administration of DSS. Mice were sacrificed at the end of the study on day 7 after DSS was administered, their livers and colons were harvested for RNA analysis, and their body weights and colon lengths were measured.
RT-PCR analysis of Factor XI mRNA was performed. As presented in Table 27 and FIG. 10, antisense oligonucleotides targeting Factor XI achieved statistically significant dose-dependent reduction of murine Factor XI over the PBS control in the liver. All the measurements are normalized to cyclophilin.
All the results in Table 27 are expressed as percent change compared to the PBS control.

[3] = test system: soluble CD40 ligand (CD40L); assay: Colitis Study E: CD40L plasma levels; assay type: in vivo, Swiss Webb mice; conditions: for CD40L plasma levels: DSS-treated mice, day 7, 40 mpk
Protocol: Two groups 8 Swiss Webb mice were dosed with 40 mg/kg of ISIS 404071 injected subcutaneously twice a week for 3 weeks. Two control groups of 8 Swiss Webb mice were dosed with PBS subcutaneously twice a week for 3 weeks. Both the ASO treated groups and one of the control groups were then given 4% DSS in distilled water for 7 days ad libitum. One of the ASO and DSS treated groups was also given intravenous injections of 20 μg of recombinant human Factor XI protein (Haematologic Technologies Inc.) for 7 consecutive days, starting the day before DSS treatment. Mice were sacrificed at the end of the study on day 7 after DSS was administered.
Plasma levels of soluble CD40 ligand (CD40L) are known to be elevated in cases of inflammatory bowel disease (Ludwiczek, O. et al., Int. J. Colorectal Disease. 2003. 18: 142-147) and may be considered a marker of intestinal inflammation. The effect of antisense inhibition of Factor XI on CD40L levels in the plasma was evaluated at the end of the study on day 7 after DSS was administered and the results are presented in Table 39. CD40L levels in plasma were measured by commercially available ELISA kits (Bender MedSystems, Vienna, Austria, eBioscience, San Diego, Calif.) according to the manufacture's protocols.

[4] = test system: DSS-induced colitis model; assay: Colitis Study B: body weight and colon length; assay type: in vivo, Swiss Webb mice
Protocol: as §1, §2

[5] = DSS-induced colitis, day 7, 20 mg/kg s.c. twice a week for 3 weeks, expressed as a percentage of the PBS control
[6] = DSS-induced colitis, day 7, 20 mg/kg s.c. twice a week for 3 weeks, percent change compared to the PBS control

Substance: ISIS 416850: gapmer of Table 8 (antisense eT*eG*e[5mC]*eA*e[5mC]*dA*dG*dT*dT*dT*d[5mC]*dT*dG*dG*d[5mC]*eA*eG*eG*e[5mC]*e[5mC])
- Body weight ([1]; chronic, lower dose regimen (*) 5 then 10 mg/kg s.c., day 1): 2665 g
- Body weight ([1]; chronic, lower dose regimen (*) 5 then 10 mg/kg s.c., day 8): 2579 g
- Body weight ([1]; chronic, lower dose regimen (*) 5 then 10 mg/kg s.c., day 15): 2607 g
- Body weight ([1]; chronic, lower dose regimen (*) 5 then 10 mg/kg s.c., day 22): 2661 g
- Body weight ([1]; chronic, lower dose regimen (*) 5 then 10 mg/kg s.c., day 29): 2667 g
- Body weight ([1]; chronic, lower dose regimen (*) 5 then 10 mg/kg s.c., day 36): 2656 g
- Body weight ([1]; chronic, lower dose regimen (*) 5 then 10 mg/kg s.c., day 43): 2670 g
- Body weight ([1]; chronic, lower dose regimen (*) 5 then 10 mg/kg s.c., day 50): 2679 g
- Body weight ([1]; escalating doses 5, 10, 25 mg/kg s.c., day 1): 2572 g
- Body weight ([1]; escalating doses 5, 10, 25 mg/kg s.c., day 8): 2430 g
- Body weight ([1]; escalating doses 5, 10, 25 mg/kg s.c., day 15): 2474 g
- Body weight ([1]; escalating doses 5, 10, 25 mg/kg s.c., day 22): 2514 g
- Body weight ([1]; escalating doses 5, 10, 25 mg/kg s.c., day 29): 2515 g
- Body weight ([1]; escalating doses 5, 10, 25 mg/kg s.c., day 36): 2545 g
- Body weight ([1]; escalating doses 5, 10, 25 mg/kg s.c., day 43): 2544 g
- Body weight ([1]; escalating doses 5, 10, 25 mg/kg s.c., day 50): 2613 g
- Body weight ([1]; escalating doses 5, 10, 25 mg/kg s.c., day 57): 2629 g
- Body weight ([1]; escalating doses 5, 10, 25 mg/kg s.c., day 64): 2642 g
- Body weight ([1]; escalating doses 5, 10, 25 mg/kg s.c., day 71): 2769 g
- Body weight ([1]; escalating doses 5, 10, 25 mg/kg s.c., day 78): 2660 g

Substance: TGGTAATCCACTTTCAGAGG (eT*eG*eG*eT*eA*dA*dT*d[5mC]*d[5mC]*dA*d[5mC]*dT*dT*dT*d[5mC]*eA*eG*eA*eG*eG) [ISIS 404071, 5-10-5 MOE gapmer targeting murine Factor XI, target start site 869]
- body weight (in words) ([2]; Colitis Study A, FIG. 7A/7B): did not have any significant change in body weight
- colon length (in words) ([2]; Colitis Study A, listed as Factor XI ASO): had no significant change in colon length
- colon length (in words) ([2]; Colitis Study A, listed as Factor XI oligonucleotide): decreased the amount of colon shortening
- Body weight change [2, 5]: −2%
- Colon length change [2, 5]: −13%
- Liver Factor XI mRNA (murine Factor XI mRNA): −75%
- CD40L levels in plasma (in words) ([3]; Colitis Study E, day 7): decreased
- CD40L plasma levels ([3]; no human recombinant FXI): 1.5 ng/mL
- CD40L plasma levels ([3]; plus human recombinant FXI 20 ug/mouse/day): 1.6 ng/mL
- body weight (in words) ([4]; Colitis Study B, FIG. 9): did not have any significant change in body weight
- Body weight [4, 6]: −10%
- Colon length [4, 6]: −11%
